Here are results for two compounds from PMC8196835, “Antibacterial Properties of Small-Size Peptide Derived from Penetratin against Oral Streptococci” (Materials, 2021).

Converted amounts (≈) assume the structure as drawn. Residues, ends and D or L forms follow the SMILES beside them.

In series [1] the test system is S. gordonii (ATCC No 10558). The series is classed as cell-based, Streptococci gordonii. The settings on record: ATCC No 10558, 24 h. As to the method: (§1) The bacterial strains S. oralis (ATCC No 9811), S. sanguinis (ATCC No 10556), and S. gordonii (ATCC No 10558) were purchased from the ATCC (American Type Culture Collection, Manassas, VA, USA). The cultivation method was the same as that described in a previous article.
(§2) The bacterial growth inhibiting ability of the peptide was determined using a broth microdilution-based method with modifications. […] The start inoculum was 5 × 10^7 CFU mL^−1, and the MIC was denoted as the lowest concentration of peptides where bacterial growth was stopped. After bacteria were treated with RR9 for 24 h, 20 uL was removed from each sample and spread on a brain heart infusion (BHI) agar plate. The CFU on plates were counted after incubation at 37 °C for 5 days. The MBC is the concentration of RR9 where over 99.9% of the cells were inhibited.

The next series concerns sspA gene of S. gordonii. Briefly: RT-PCR of sspA gene expression. Format: cell-based. The note with it: RR9 25 μg mL^−1 (MIC), 24 h, p < 0.05. As to the method: Trizol reagent was employed to extract the total RNA of S. gordonii cells, following the manufacturer’s instructions. The first strand of cDNA was synthesized by the retrotranscription of 2 μL of RNA (Invitrogen, TRIzol Max Bacterial RNA Isolation Kit). The cDNA was amplified to a final volume of 20 μL by 45 cycles in a DNA thermal circulatory apparatus. Pre-denaturation was carried out at 95 °C for 15 s, and the reaction was performed at 95 °C for 10 s, 60 °C for 20 s, and 72 °C for 30 s. The primer sequences of the differentiation markers are shown in Table A1 in Appendix B. After amplification, GAPDH was defined as the internal reference gene, and the sample of the control group was set as the standard to obtain the CT value of each target gene for each sample. The data were analyzed using the relative quantification of ΔCT. The relative quantitative (RQ) values of all target genes were obtained according to the formula RQ = 2^−ΔΔCT.

For series [2], the system named is streptococci biofilm (S. oralis, S. gordonii, S. sanguinis). In words: Biofilm susceptibility, crystal violet. Format: cell-based. The settings on record: RR9 25 μg mL^−1 (MIC), 24 h, n = 3, p < 0.05. As to the method:
The antibacterial agents were evaluated by the microdilution method to study their impact on biofilm formation. In our study, streptococci (5 × 10^7 CFU mL^−1) mixed with RR9 were cultured for 24 h. The formed biofilm was fixed using methanol (95%) and stained using 0.5% (w/v) crystal violet, and the final OD at 600 nm was measured.

The test system is the same in series [3]. Format: cell-based. The settings on record: RR9 25 μg mL^−1, 24 h at 37 °C, preformed 24 h biofilm, AO/EB. As to the method:
Each bacteria suspension (300 μL) was mixed with BHI broth (900 μL) and then cultured for 24 h in a 24-well microtiter plate for biofilm formation. After the removal of the medium and unattached bacterial cells, RR9 (25 μg mL^−1) with saliva or serum was added, and the resulting samples were cultured for another 24 h at 37 °C. After the staining of the attached bacteria using an acridine orange/ethidium bromide (AO/EB) solution (Solarbio, Beijing, China), CLSM (Leica SP8, Oskar-Barnack-Strae Germany) was used to count the number of observed bacterial cells. For each biofilm strain, three representative areas per lens were scanned in at least three separate experiments. The images were captured using MetaMorph software (Universal Imaging, West Chester, PA, USA).

The test system of series [4] is S. sanguinis (ATCC No 10556). Format: cell-based, Streptococci sanguinis. The settings on record: ATCC No 10556, 24 h. The protocol: as §1, §2
Series [5] concerns human gingival fibroblasts (HGFs). The series is classed as cell-based. The settings on record: RR9 25 μg mL^−1, 1–4 days, CCK-8 OD 450 and AO/EB CLSM. As to the method: HGFs were purchased from Procell Life Science & Technology (Wuhan, China). Cells from passages 4 to 6 were used. The cultivation method was described previously.
The HGFs (2 × 10^3 cells per well) were cultured in DMEM supplemented with 10% FBS in a humidified incubator (37 °C, 5% CO2 atmosphere) for 24 h. Pretreatment of the cells was conducted by incubating with 25 μg mL^−1 RR9 for 1, 2, 3, and 4 days. Untreated cells were used as a negative control. The samples were characterized using the Cell Counting Kit-8 (Dojindo Laboratories, Kumamoto, Japan) by measuring their absorbance at 450 nm using a microplate reader (BioTek Synergy HT, Vermont, USA). After staining using AO/EB live/dead dye, the viability of seeded cells on the sterile coverslips was determined using CLSM. Each sample consisted of five wells.

Series [6] concerns planktonic oral streptococci (S. oralis, S. sanguinis, S. gordonii). Briefly: Time-kill assay. The series is classed as cell-based. As to the method: To evaluate the effect of RR9 on planktonic oral streptococci, the time-killing assay was used. First, 200 μL of RR9 solution and 800 μL of BHI broth were mixed with 1 mL of bacterial culture (5 × 10^7 CFU mL^−1), yielding 2 mL of the final volume with 100%, 200%, or 400% of the MBC final peptide concentrations. After 0, 0.25, 0.5, 1, 2, 4, 24, and 48 h of incubation at 37 °C, 10 μL of each suspension was pipetted, serially diluted 10 times, and finally transferred to a BHI agar plate for CFU determination. The time–kill kinetic curves were obtained by recording log(CFU mL^−1) as a function of incubation time […].

Series [7] has as its system streptococci biofilms and cell membranes. In words: SEM and TEM observation of bacterial morphology. Format: cell-based, S. oralis, S. gordonii, S. sanguinis. The settings on record: RR9 25 μg mL^−1, 24 h (SEM), 12 h (TEM). The source says: The morphology of the formed biofilm was observed using scanning electron microscopy (SEM, SUPRA 55VP, Germany) following previously published procedures. Additionally, the transmission electron microscopy (TEM, JEM-2100F; JEOL Ltd., Tokyo, Japan)-based technique was employed for the structural analysis of RR9 cells according to the previously reported method. For more details, please check Appendix A.
A sterile coverslip was placed in a 24-well plate and was as described above. The coverslips with biofilms were fixed with 2.5% (v/v) glutaraldehyde, and the samples were dehydrated with increasing concentrations of ethanol for 15 min each. Prior to field-emission SEM, the samples were subjected to gold sputtering.
After incubation with RR9 (25 μg mL^−1) or without the peptide (control group) for 12 h at 37 °C in an anaerobic chamber (N2: 80%; H2: 10%; CO2: 10%), super-thin slice samples were prepared for TEM using a previously reported method. The cells were fixed with 2.5% glutaraldehyde at 4 °C for 4 h and, then, dyed with 2% uranyl acetate and 0.2% citrate before being observed under electron.

The next series has as its system tested bacteria. The settings on record: cited from earlier work. From the text: To overcome the drawbacks of using cationic peptides as a new generation of antibiotics, researchers began to synthesize new short peptides by reducing the residue of the peptide chain for use as candidate drugs in clinical trials. […] Therefore, we aimed to figure out the antibacterial activity of RR9 on initial oral colonizers, specifically S. oralis, S. gordonii, and S. sanguinis ... || Antibiotics are used excessively and inappropriately in clinic. As a result, it directly leads to the weakening of the effect of antibiotics and the emergence of drug-resistant pathogens. Among new biomedical alternatives, antimicrobial peptides (AMPs) and cell-penetrating peptides (CPPs) are considered promising candidates. CPPs are a new carrier that can pass through the cell membrane without cell surface receptor recognition and can deliver therapeutic drugs to the cell membrane. One of the most well-known examples of CPPs is penetratin (RQIKIWFQNRRMKWK ...

A further series concerns S. oralis (ATCC No 9811). The series is classed as cell-based, Streptococci oralis. The settings on record: ATCC No 9811, 24 h. As to the method:
as §1, §2

For another series, the system named is mammalian cells. The note with it: cited from earlier work. The source says: Antibiotics are used excessively and inappropriately in clinic. As a result, it directly leads to the weakening of the effect of antibiotics and the emergence of drug-resistant pathogens. Among new biomedical alternatives, antimicrobial peptides (AMPs) and cell-penetrating peptides (CPPs) are considered promising candidates. CPPs are a new carrier that can pass through the cell membrane without cell surface receptor recognition and can deliver therapeutic drugs to the cell membrane. One of the most well-known examples of CPPs is penetratin (RQIKIWFQNRRMKWK ...

`CC[C@H](C)[C@H](NC(=O)[C@H](CCC(N)=O)NC(=O)[C@@H](N)CCCNC(=N)N)C(=O)N[C@@H](CCCNC(=N)N)C(=O)N[C@@H](CCCNC(=N)N)C(=O)N[C@@H](Cc1c[nH]c2ccccc12)C(=O)N[C@@H](Cc1c[nH]c2ccccc12)C(=O)N[C@@H](CCC(N)=O)C(=O)N[C@@H](CCCNC(=N)N)C(N)=O` [RR9, Arg-Gln-Ile-Arg-Arg-Trp-Trp-Gln-Arg-NH2] (H-RQIRRWWQR-NH2; N-terminus assumed): the MBC was 50 µg/mL (≈ 36.1 µM) in series [1], 62.5 µg/mL (≈ 45.2 µM) in series [4] and 62.5 µg/mL (≈ 45.2 µM) against S. oralis (ATCC No 9811). Besides, the MIC (in series [1]; in [4]; in the series with S. oralis (ATCC No 9811)) was 25 µg/mL (≈ 18.1 µM) each time. In addition, the “expression of the sspA gene versus control” value in the series on sspA gene of S. gordonii was “significantly reduced”. In series [2], the “biofilm formation, OD at 600 nm versus control” value was “reduced OD value”. For the same compound, the “anti-biofilm effect of RR9 with saliva or serum compared with RR9 alone (CLSM live/dead)” value in series [3] is reported as “No significant difference”. Besides, the “cytotoxicity toward HGFs” value in [5] is on record as “negligible cytotoxicity”. Further, the “time to complete bacterial death” value in [6] (100%, 200% or 400% of the MBC, 37 °C, all tested strains) is 24 to 48 h. Also, the “duration of the antimicrobial effect” value in series [6] (time-kill over 48 h) is listed as 44 h. For the same compound, the “bacterial morphology and membrane integrity (SEM, TEM)” value in series [7] is “the bacteria swelled, and some cell membranes were damaged”. Also, the “antimicrobial effect against selected bacteria” value in the series with tested bacteria is “strong antimicrobial effect”.

As for “RQIKIWFQNRRMKWKK-NH2 [penetratin, well-known cell-penetrating peptide, …-NH2]”, the “cytotoxicity toward mammalian cells” value in the series on mammalian cells was “without any cytotoxicity”. In addition, the “bactericidal effect on the tested bacteria” value with tested bacteria was “strong bactericidal effect”.

A word on the MBC: it is the smallest concentration meeting the test's criterion for killing. A higher MBC goes with less potent killing. A word on the MIC: it is the lowest concentration found to suppress growth. The low end stands for greater potency, the high end for weaker potency.
